Measured values reported in patent US8148392B2, “2-indolyl imidazo [4,5-d] phenanthroline derivatives and their use in the treatment of cancer” (Lorus Therapeutics Inc., priority 2005, dated 2012).
Entries after “also recorded” stand apart in the source; their conditions may differ.

Columns and labels:
[1] = tested on: 12 human tumour cell lines; experiment: Hollow fiber assay; format: in vivo, athymic mice; conditions: for net cell kill: cell lines with net cell kill
Source text: For example, the in vivo activity of candidate compounds can also be tested using the Hollow Fiber Assay (Hollingshead, M., et al., (1995) Life Sciences 57:131-141; and Decker et al., Eur. J. of Cancer 40: 821-826 (2004)). In this assay, cells growing in hollow fibers (polyvinylidine fluoride, PVDF) are implanted in various body compartments of mice. A standard panel of 12 tumour cell lines can be used for the hollow fiber screening of candidate compounds which have shown activity in vitro. These cell lines may include NCI-H23, NCI-H522, MDA-MB-231, MDA-MB-435, SW-620, COLO 205, LOX-IMVI, UACC-62, OVCAR-3, OVCAR-5, U251 and SF-295. In addition, alternate lines such as those described in the above in vitro section can be used for specialized testing of compounds. The cell lines are cultivated according to standard protocols, and fibers are prepared by flushing cells into the PVDF fibers and sealing them at 2 cm intervals. The samples generated from these seals are placed into tissue culture medium and incubated at 37° C. in 5% CO2 for 24 to 48 hours prior to implantation. A total of 3 different tumour lines are prepared for each experiment so that each mouse receives 3 intraperitoneal implants (1 of each tumour line) and 3 subcutaneous implants (1 of each tumour line). On the day of implantation, samples of each tumour cell line preparation are quantitated for viable cell mass by, for example, a stable endpoint MTT assay, so that the time zero cell mass is known. Mice are treated with experimental agents starting on day 3 or 4 following fiber implantation and continuing daily for 4 days. Each agent is administered by intraperitoneal injection at 2 dose levels. The fibers are collected from the mice on the day following the fourth compound treatment and subjected to the stable endpoint MTT assay. The optical density of each sample is determined spectrophotometrically at 540 nm and the mean of each treatment group is calculated. The percent net growth for each cell line in each treatment group is calculated and compared to the percent net growth in the vehicle treated controls. A 50% or greater reduction in percent net growth in the treated samples compared to the vehicle control samples is considered a positive result. Each positive result is given a score of […] and all of the scores are totaled for a given compound. The maximum possible score for an agent is 96 (12 cell lines×2 sites×2 dose levels×2 [score]).
A candidate compound that is screened initially in the hollow fiber assay may subsequently be tested in a xenograft model if it has a combined ip+sc score of 20 or greater, a sc score of 8 or greater, or produces cell kill of any cell line at either dose level evaluated. This scoring system has been validated by DCTDC statisticians in CTEP to represent a level of detection expected to score current “standard” agents as active.
The in vivo efficacy of compounds according to Formula I was tested by determining the efficacy of compound 3 in the hollow fiber assay. This assay is described in Decker et al., Eur. J. of Cancer 40: 821-826 (2004), and was carried out by implanting 12 human tumour cell lines (Breast; MDA-MB-231, MDA-MB-435. Glioma; U251, SF-295. Ovarian; OVCAR-3, OVCAR-5. Colon; COLO-205, SW-620. Melanoma; LOX-IMVI, UACC-62 and Lung; NCI-H23, NCI-H522) into athymic mice as follows. Cell cultures were cultivated in RPMI-1640 containing 10% FBS and 2 mM glutamine. […]

KLF4 = KLF4 mRNA in HT-29 tumour xenografts, RT-PCR; format: in vivo, CD-1 female nude mice
Experimental: The ability of compound 3 to modulate expression of KLF4 in HT-29 colon tumour xenograft was determined as follows. Groups of 10 CD-1 female nude mice (6-7 weeks) were injected in the lower mid back with human colon adenocarcinoma cells HT-29 cells (3×10^6 cells in 0.1 ml PBS) subcutaneously. […] After the treatment period, the animals were sacrificed, the tumours excised, and total RNA was extracted from 30 mg of tumour tissue using Rneasy Mini kit (QIAGEN, Valencia, Calif.). The expression of KLF4 mRNA was analyzed by real-time polymerase chain reaction using the comparative CT method as described in Example 19. […]
To examine the effect of compound 3-mediated changes in KLF4 and Cyclin D1 expressions in vivo, the expressions of respective genes in xenograft tissues of vehicle control (Lutrol) and compound 3-treated HT-29 colon cancer cell-transplanted mice were analyzed by RT-PCR (FIG. 46). Briefly, KLF4 and Cyclin D1 gene expression in HT-29 xenograft tissues after 14 days treatment with compound 3 was measured as follows. […] Total RNA was extracted and gene expression level was determined by RT-PCR. […]
The tumor regression efficacy of compound 3 was assessed in compound 3-treated HT-29-transplanted athymic mice (FIG. 54A), and correlated with gene expressions of MTF-1, KLF4 and Cyclin D1 in HT-29 xenograft tissues (FIG. 54B). […]

Cc1[nH]c2ccccc2c1-c1nc2c3cccnc3c3ncccc3c2[nH]1 [Compound 3]
ip score ([1]; 2 dosages, 4 days treatment): 22 | sc score ([1]; 2 dosages, 4 days treatment): 10 | net cell kill [1]: positive cell killing; also recorded: one or more | net cell kill ([1]; listed as compound 3): positive cell kill | total score ([1]; ip + sc, maximum of 96): 32 | induction of KLF4 in tumour xenografts (KLF4; 50 mg/kg/d, 35 days, versus vehicle): approximately 1.5 fold | KLF4 gene expression in xenograft tissue, change (KLF4; 100 mg/kg i.p., 14 days or 2 cycles of 5 days): increase in KLF4 gene; also recorded: significant increase in KLF4
